From patent US11266622B2, “Method of treatment” (Vanda Pharmaceuticals Inc., priority 2014, dated 2022)
pKi: −log10 of the molar value.

Columns and labels:
[1] = Metabolite formation following oral administration of tasimelteon; assay type: in vivo; conditions: humans
[2] = system: sleep parameters; conditions: cited from earlier work
[3] = biological target: T1, Mel1b (MT2R) (Homo sapiens, UniProt P49286); test: Affinity (Ki) for melatonin receptor MT2R; assay type: binding
T1 sequence (P49286 1-362): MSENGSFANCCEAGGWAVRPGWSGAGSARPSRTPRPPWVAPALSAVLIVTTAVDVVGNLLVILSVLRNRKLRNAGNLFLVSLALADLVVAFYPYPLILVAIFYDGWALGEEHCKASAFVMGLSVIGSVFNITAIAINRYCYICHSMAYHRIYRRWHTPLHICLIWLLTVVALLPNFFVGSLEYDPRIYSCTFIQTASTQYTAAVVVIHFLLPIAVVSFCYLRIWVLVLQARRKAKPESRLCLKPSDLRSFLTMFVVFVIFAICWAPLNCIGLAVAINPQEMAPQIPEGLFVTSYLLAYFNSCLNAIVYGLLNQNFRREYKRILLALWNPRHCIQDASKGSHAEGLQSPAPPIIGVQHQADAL

[4] = biological target: Mel1a (MT1R) (Homo sapiens, UniProt P48039); test: Affinity (Ki) for melatonin receptor MT1R; assay type: binding
[5] = Solubility of tasimelteon in solvents and water; assay type: physicochemical

Sequence of Mel1a (MT1R) (P48039 whole entry): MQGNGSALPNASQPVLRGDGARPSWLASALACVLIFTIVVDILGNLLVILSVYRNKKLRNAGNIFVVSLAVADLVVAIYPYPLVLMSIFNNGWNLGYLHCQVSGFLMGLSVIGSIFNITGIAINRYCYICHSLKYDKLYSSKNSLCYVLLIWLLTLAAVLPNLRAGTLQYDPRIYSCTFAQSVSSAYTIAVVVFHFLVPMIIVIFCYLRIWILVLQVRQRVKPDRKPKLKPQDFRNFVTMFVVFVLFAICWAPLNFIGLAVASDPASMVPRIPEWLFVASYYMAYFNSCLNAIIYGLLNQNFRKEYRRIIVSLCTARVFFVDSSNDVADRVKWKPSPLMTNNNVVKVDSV

Row | formation as metabolite [1] | pKi [3] | greater affinity for MT2R relative to MT1R ([3]; MT2R relative to MT1R) | pKi [4] | solubility in organic solvents ([5]; 95% ethanol, methanol, acetonitrile, ethyl acetate, isopropanol, polyethylene glycols (PEG-300 and PEG-400)) | effect of pH on aqueous solubility ([5]; aqueous) | native pH of a saturated solution in water ([5]; saturated solution in water) | solubility in water ([5]; water) | Structure (SMILES) | effect on sleep parameters ([2]; prior clinical studies, simulated desynchronization of the circadian clock) | tolerability profile ([2]; studied in hundreds of individuals)
1 | formed in humans | – | – | – | – | – | – | – | CCC(=O)NC[C@@H]1C[C@H]1c1cccc(O)c1CC(=O)O [M9] | – | –
2 | formed in humans | – | – | – | – | – | – | – | CCC(=O)NC[C@@H]1C[C@H]1c1cccc(O)c1CCO [M11] | – | –
3 | – | 9.70 to 10.00 | 2-4 times | 9.40 to 9.52 | very soluble or freely soluble | practically unaffected by pH | 8.5 | only slightly soluble | CCC(=O)NC[C@@H]1C[C@H]1c1cccc2c1CCO2 (relative stereo) [Tasimelteon, trans-N-[[2-(2,3-dihydrobenzofuran-4-yl)cycloprop-1yl]methyl]propanamide] | shown to improve sleep parameters | good tolerability profile
